Source: patent US8952024B2, “Herbicidal pyrimidone derivatives” (E I du Pont de Nemours and Company, priority 2009, dated 2015)

tested on: green foxtail (Setaria viridis); assay: Test B pre-/postemergence plant response; assay type: in vivo; settings: Postemergence, 31 g ai/ha; 0 to 100 scale (0 no effect, 100 complete control)
How it was run: (§1)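 Seeds sown in loam–sand blend were treated preemergence, and plants at 2–18 cm (1- to 4-leaf stage) in peat-based medium were treated postemergence; compounds were formulated in non-phytotoxic solvent with surfactant. After 13–15 days in greenhouse, response was visually rated against controls, 0 (no effect) to 100 (complete control).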

| Compound | Plant response rating, Foxtail, Green |
| --- | --- |
| O=C1CCCC(O)=C1C(=O)c1cnc(-c2ccc(F)cc2)n(C2CCCCC2)c1=O [Compound 197] | 5 |

same assay, conditions: Postemergence, 62 g ai/ha; scale 0 to 100 (0 no effect, 100 complete control)

| Compound | Plant response rating, Foxtail, Green |
| --- | --- |
| O=C1CCCC(O)=C1C(=O)c1cnc(-c2ccc(F)cc2)n(C2CCCCC2)c1=O [Compound 197] | 30 |

same assay, conditions: Postemergence, 125 g ai/ha; scale 0 to 100 (0 no effect, 100 complete control)

| Compound | Plant response rating, Foxtail, Green |
| --- | --- |
| O=C1CCCC(O)=C1C(=O)c1cnc(-c2ccc(F)cc2)n(C2CCCCC2)c1=O [Compound 197] | 50 |

same assay, conditions: Postemergence, 250 g ai/ha; scale 0 to 100 (0 no effect, 100 complete control); 13 to 15 days

| Compound | Plant response rating, Foxtail, Green |
| --- | --- |
| O=C1CCCC(O)=C1C(=O)c1cnc(-c2ccc(F)cc2)n(C2CCCCC2)c1=O [Compound 197] | 70 |

tested on: johnsongrass (Sorghum halepense); assay: Test B pre-/postemergence plant response; assay type: in vivo; settings: Postemergence, 31 g ai/ha; 0 to 100 scale (0 no effect, 100 complete control)
How it was run: as §1

| Compound | Plant response rating, Johnsongrass |
| --- | --- |
| O=C1CCCC(O)=C1C(=O)c1cnc(-c2ccc(F)cc2)n(C2CCCCC2)c1=O [Compound 197] | 70 |

same assay, conditions: Postemergence, 62 g ai/ha; scale 0 to 100 (0 no effect, 100 complete control)

| Compound | Plant response rating, Johnsongrass |
| --- | --- |
| O=C1CCCC(O)=C1C(=O)c1cnc(-c2ccc(F)cc2)n(C2CCCCC2)c1=O [Compound 197] | 85 |

same assay, conditions: Postemergence, 125 g ai/ha; scale 0 to 100 (0 no effect, 100 complete control)

| Compound | Plant response rating, Johnsongrass |
| --- | --- |
| O=C1CCCC(O)=C1C(=O)c1cnc(-c2ccc(F)cc2)n(C2CCCCC2)c1=O [Compound 197] | 95 |

same assay, conditions: Postemergence, 250 g ai/ha; scale 0 to 100 (0 no effect, 100 complete control); 13 to 15 days

| Compound | Plant response rating, Johnsongrass |
| --- | --- |
| O=C1CCCC(O)=C1C(=O)c1cnc(-c2ccc(F)cc2)n(C2CCCCC2)c1=O [Compound 197] | 100 |

tested on: large crabgrass (Digitaria sanguinalis); assay: Test B pre-/postemergence plant response; assay type: in vivo; settings: Postemergence, 31 g ai/ha; 0 to 100 scale (0 no effect, 100 complete control)
How it was run: as §1

| Compound | Plant response rating, Crabgrass, Large |
| --- | --- |
| O=C1CCCC(O)=C1C(=O)c1cnc(-c2ccc(F)cc2)n(C2CCCCC2)c1=O [Compound 197] | 75 |

same assay, conditions: Postemergence, 62 g ai/ha; scale 0 to 100 (0 no effect, 100 complete control)

| Compound | Plant response rating, Crabgrass, Large |
| --- | --- |
| O=C1CCCC(O)=C1C(=O)c1cnc(-c2ccc(F)cc2)n(C2CCCCC2)c1=O [Compound 197] | 85 |

same assay, conditions: Postemergence, 125 g ai/ha; scale 0 to 100 (0 no effect, 100 complete control)

| Compound | Plant response rating, Crabgrass, Large |
| --- | --- |
| O=C1CCCC(O)=C1C(=O)c1cnc(-c2ccc(F)cc2)n(C2CCCCC2)c1=O [Compound 197] | 98 |

same assay, conditions: Postemergence, 250 g ai/ha; scale 0 to 100 (0 no effect, 100 complete control); 13 to 15 days

| Compound | Plant response rating, Crabgrass, Large |
| --- | --- |
| O=C1CCCC(O)=C1C(=O)c1cnc(-c2ccc(F)cc2)n(C2CCCCC2)c1=O [Compound 197] | 100 |

tested on: morningglory (Ipomoea coccinea); assay: Test B pre-/postemergence plant response; assay type: in vivo; settings: Postemergence, 31 g ai/ha; 0 to 100 scale (0 no effect, 100 complete control)
How it was run: as §1

| Compound | Plant response rating, Morningglory |
| --- | --- |
| O=C1CCCC(O)=C1C(=O)c1cnc(-c2ccc(F)cc2)n(C2CCCCC2)c1=O [Compound 197] | 98 |

same assay, conditions: Postemergence, 62 g ai/ha; scale 0 to 100 (0 no effect, 100 complete control)

| Compound | Plant response rating, Morningglory |
| --- | --- |
| O=C1CCCC(O)=C1C(=O)c1cnc(-c2ccc(F)cc2)n(C2CCCCC2)c1=O [Compound 197] | 100 |

same assay, conditions: Postemergence, 125 g ai/ha; scale 0 to 100 (0 no effect, 100 complete control)

| Compound | Plant response rating, Morningglory |
| --- | --- |
| O=C1CCCC(O)=C1C(=O)c1cnc(-c2ccc(F)cc2)n(C2CCCCC2)c1=O [Compound 197] | 100 |

same assay, conditions: Postemergence, 250 g ai/ha; scale 0 to 100 (0 no effect, 100 complete control); 13 to 15 days

| Compound | Plant response rating, Morningglory |
| --- | --- |
| O=C1CCCC(O)=C1C(=O)c1cnc(-c2ccc(F)cc2)n(C2CCCCC2)c1=O [Compound 197] | 100 |

tested on: woolly cupgrass (Eriochloa villosa); assay: Test B pre-/postemergence plant response; assay type: in vivo; settings: Postemergence, 31 g ai/ha; 0 to 100 scale (0 no effect, 100 complete control)
How it was run: as §1

| Compound | Plant response rating, Cupgrass, Woolly |
| --- | --- |
| O=C1CCCC(O)=C1C(=O)c1cnc(-c2ccc(F)cc2)n(C2CCCCC2)c1=O [Compound 197] | 70 |

same assay, conditions: Postemergence, 62 g ai/ha; scale 0 to 100 (0 no effect, 100 complete control)

| Compound | Plant response rating, Cupgrass, Woolly |
| --- | --- |
| O=C1CCCC(O)=C1C(=O)c1cnc(-c2ccc(F)cc2)n(C2CCCCC2)c1=O [Compound 197] | 85 |

same assay, conditions: Postemergence, 125 g ai/ha; scale 0 to 100 (0 no effect, 100 complete control)

| Compound | Plant response rating, Cupgrass, Woolly |
| --- | --- |
| O=C1CCCC(O)=C1C(=O)c1cnc(-c2ccc(F)cc2)n(C2CCCCC2)c1=O [Compound 197] | 90 |

same assay, conditions: Postemergence, 250 g ai/ha; scale 0 to 100 (0 no effect, 100 complete control); 13 to 15 days

| Compound | Plant response rating, Cupgrass, Woolly |
| --- | --- |
| O=C1CCCC(O)=C1C(=O)c1cnc(-c2ccc(F)cc2)n(C2CCCCC2)c1=O [Compound 197] | 98 |

tested on: yellow nutsedge (Cyperus esculentus); assay: Test B pre-/postemergence plant response; assay type: in vivo; settings: Postemergence, 31 g ai/ha; 0 to 100 scale (0 no effect, 100 complete control)
How it was run: as §1

| Compound | Plant response rating, Nutsedge, Yellow |
| --- | --- |
| O=C1CCCC(O)=C1C(=O)c1cnc(-c2ccc(F)cc2)n(C2CCCCC2)c1=O [Compound 197] | 45 |

same assay, conditions: Postemergence, 62 g ai/ha; scale 0 to 100 (0 no effect, 100 complete control)

| Compound | Plant response rating, Nutsedge, Yellow |
| --- | --- |
| O=C1CCCC(O)=C1C(=O)c1cnc(-c2ccc(F)cc2)n(C2CCCCC2)c1=O [Compound 197] | 55 |

same assay, conditions: Postemergence, 125 g ai/ha; scale 0 to 100 (0 no effect, 100 complete control)

| Compound | Plant response rating, Nutsedge, Yellow |
| --- | --- |
| O=C1CCCC(O)=C1C(=O)c1cnc(-c2ccc(F)cc2)n(C2CCCCC2)c1=O [Compound 197] | 65 |

same assay, conditions: Postemergence, 250 g ai/ha; scale 0 to 100 (0 no effect, 100 complete control); 13 to 15 days

| Compound | Plant response rating, Nutsedge, Yellow |
| --- | --- |
| O=C1CCCC(O)=C1C(=O)c1cnc(-c2ccc(F)cc2)n(C2CCCCC2)c1=O [Compound 197] | 75 |
